According to patent US12581252B2, “Substituted pyrrolo[3,4-b]pyridines as PI3K-α inhibitors” (Relay Therapeutics, Inc., priority 2020, dated 2026):

Molecular target: H1047R PIK3CA enzyme (Homo sapiens, UniProt P42336, H1047R)
Assay: ADP-Glo Biochemical PIK3CA Kinase Assay

Sequence of H1047R PIK3CA enzyme (P42336 whole entry H1047R): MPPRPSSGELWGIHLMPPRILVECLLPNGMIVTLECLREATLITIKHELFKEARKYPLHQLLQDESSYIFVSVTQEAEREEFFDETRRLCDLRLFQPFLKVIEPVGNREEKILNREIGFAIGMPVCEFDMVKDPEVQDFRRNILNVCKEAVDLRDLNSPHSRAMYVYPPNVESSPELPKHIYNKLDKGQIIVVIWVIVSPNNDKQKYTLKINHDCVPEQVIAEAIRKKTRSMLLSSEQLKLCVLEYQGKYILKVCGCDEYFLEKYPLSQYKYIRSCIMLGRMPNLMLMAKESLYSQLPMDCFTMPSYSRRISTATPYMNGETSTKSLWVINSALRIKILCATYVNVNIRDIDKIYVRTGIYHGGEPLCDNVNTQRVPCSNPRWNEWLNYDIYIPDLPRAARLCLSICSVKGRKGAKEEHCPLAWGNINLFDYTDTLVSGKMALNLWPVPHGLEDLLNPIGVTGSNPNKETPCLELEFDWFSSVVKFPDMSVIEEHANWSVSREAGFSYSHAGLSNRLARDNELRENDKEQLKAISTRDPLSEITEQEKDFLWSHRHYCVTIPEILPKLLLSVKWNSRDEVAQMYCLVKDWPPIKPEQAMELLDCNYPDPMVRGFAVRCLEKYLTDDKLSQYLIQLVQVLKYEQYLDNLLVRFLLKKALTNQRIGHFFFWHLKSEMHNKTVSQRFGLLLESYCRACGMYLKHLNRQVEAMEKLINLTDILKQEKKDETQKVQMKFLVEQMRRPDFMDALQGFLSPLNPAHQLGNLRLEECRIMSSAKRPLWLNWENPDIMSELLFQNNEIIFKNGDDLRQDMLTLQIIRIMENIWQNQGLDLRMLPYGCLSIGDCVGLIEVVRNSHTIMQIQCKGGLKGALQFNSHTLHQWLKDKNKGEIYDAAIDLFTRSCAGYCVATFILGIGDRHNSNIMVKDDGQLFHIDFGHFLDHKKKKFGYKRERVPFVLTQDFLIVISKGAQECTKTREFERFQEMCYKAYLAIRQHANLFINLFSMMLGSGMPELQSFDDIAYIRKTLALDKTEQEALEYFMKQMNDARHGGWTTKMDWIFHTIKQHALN
Sequence of H1047R PIK3CA enzyme (P27986 whole entry partner): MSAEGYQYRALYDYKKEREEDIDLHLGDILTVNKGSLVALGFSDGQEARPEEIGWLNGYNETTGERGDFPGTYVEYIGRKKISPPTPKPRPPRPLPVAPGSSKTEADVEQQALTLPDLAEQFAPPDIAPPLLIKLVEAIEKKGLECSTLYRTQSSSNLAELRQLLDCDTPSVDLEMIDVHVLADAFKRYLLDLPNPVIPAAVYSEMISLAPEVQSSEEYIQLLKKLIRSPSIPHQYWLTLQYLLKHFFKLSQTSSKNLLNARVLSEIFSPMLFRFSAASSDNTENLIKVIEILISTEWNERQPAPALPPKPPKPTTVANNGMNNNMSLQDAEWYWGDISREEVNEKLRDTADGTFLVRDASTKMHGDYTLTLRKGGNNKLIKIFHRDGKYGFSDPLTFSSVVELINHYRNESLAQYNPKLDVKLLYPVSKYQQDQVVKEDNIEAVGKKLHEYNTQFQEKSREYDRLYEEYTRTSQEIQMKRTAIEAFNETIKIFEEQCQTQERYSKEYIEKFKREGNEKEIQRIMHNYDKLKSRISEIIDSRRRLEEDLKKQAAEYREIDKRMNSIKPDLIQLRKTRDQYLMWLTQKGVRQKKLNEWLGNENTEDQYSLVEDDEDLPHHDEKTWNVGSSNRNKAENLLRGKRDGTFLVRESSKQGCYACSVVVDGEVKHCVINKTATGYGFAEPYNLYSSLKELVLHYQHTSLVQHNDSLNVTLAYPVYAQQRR

Row | SMILES | IC50
1 | O=C(Nc1c(F)ccc2c1C(c1cc(F)ccc1C(F)F)NC2=O)c1cc(F)cc(C(F)(F)F)c1 (stereo not drawn) [Compound I-283, N-(3-(2-(Difluoromethyl)-5-fluorophenyl)-5-fluoro-1-oxoisoindolin-4-yl)-3-fluoro-5-(trifluoromethyl)benzamide] | 500 to 1000 nM
2 | O=C(Nc1cc(NC2CC(F)(F)C2)nc2c1C(c1cc(F)ccc1Cl)NC2=O)c1cc(F)cc(C(F)(F)F)c1 (stereo not drawn) [Compound I-284] | ≤ 100 nM
3 | Cc1ccccc1C1NC(=O)c2cccc(NC(=O)c3nc(C)c4ccc(Cl)cn34)c21 (stereo not drawn) [Compound I-285] | 10000 to 100000 nM
4 | O=C(Nc1cc(N2CC(F)(F)C2)nc2c1C(c1cc(F)ccc1Cl)NC2=O)c1cc(F)cc(C(F)(F)F)c1 (stereo not drawn) [Compound I-286, N-[5-(2-Chloro-5-fluorophenyl)-2-(3,3-difluoroazetidin-1-yl)-7-oxo-5H,6H,7H-pyrrolo[3,4-b]pyridin-4-yl]-3-fluoro-5-(trifluoromethyl)benzamide] | ≤ 100 nM
5 | O=C(Nc1cnc(-c2cn[nH]c2)c2c1C(c1cc(F)ccc1Cl)NC2=O)c1cc(F)cc(C(F)(F)F)c1 (stereo not drawn) [Compound I-287] | 100 to 500 nM
6 | COCCNc1cc(NC(=O)c2cc(F)cc(C(F)(F)F)c2)c2c(n1)C(=O)NC2c1cc(F)ccc1Cl (stereo not drawn) [Compound I-288] | 100 to 500 nM
7 | CC(C)(O)c1cc(NC(=O)c2coc3c(F)cc(F)cc23)c2c(c1)C(=O)NC2c1cc(F)ccc1C(F)F (stereo not drawn) [Compound I-290] | ≤ 100 nM
8 | CN1CCN(c2cc(NC(=O)c3cc(F)cc(C(F)(F)F)c3)c3c(n2)C(=O)NC3c2cc(F)ccc2Cl)CC1 (stereo not drawn) [Compound I-291] | 100 to 500 nM
9 | Cc1ccccc1C1NC(=O)c2cccc(NC(=O)c3noc4c3CCCCC4)c21 (stereo not drawn) [Compound I-292] | 10000 to 100000 nM
10 | CC(C)Cc1cc(NC(=O)c2cc(F)cc(C(F)(F)F)c2)c2c(c1)C(=O)NC2c1cc(F)ccc1Cl (stereo not drawn) [Compound I-293] | ≤ 100 nM
11 | Cc1ccccc1C1NC(=O)Oc2cccc(NC(=O)c3csc4ccccc34)c21 (stereo not drawn) [Compound I-294] | 100 to 500 nM
12 | Cc1ccccc1C1NC(=O)Nc2cccc(OC(=O)c3csc4ccccc34)c21 (stereo not drawn) [Compound I-295] | 1000 to 10000 nM
13 | O=C(Nc1ccccc1Cl)Nc1ccnc2c1C(c1ccccc1Cl)NC2=O (stereo not drawn) [Compound I-296] | 1000 to 10000 nM
14 | CS(=O)(=O)CC(O)c1cc(NC(=O)c2cc(F)cc(Cl)c2)c2c(c1)C(=O)NC2c1cc(F)ccc1Cl (stereo not drawn) [Compound I-297] | 100 to 500 nM
15 | CC(C)(O)c1cc(NC(=O)c2cc(F)cc(Cl)c2)c2c(c1)C(=O)N[C@@H]2c1cc(F)ccc1Cl [Compound I-299] | 10000 to 100000 nM
16 | CN1CCN(c2cc(NC(=O)c3cc(F)cc(C(F)(F)F)c3)c3c(c2)C(=O)NC3c2cc(F)ccc2Cl)CC1 (stereo not drawn) [Compound I-304] | ≤ 100 nM
17 | O=C(Nc1ccnc2c1C(c1cc(F)ccc1Cl)NC2=O)c1cc(F)cc(C(F)(F)F)c1 (stereo not drawn) [Compound I-305] | 100 to 500 nM
18 | Cc1ccccc1[C@@H]1NC(=O)c2cc(CO)cc(NC(=O)c3nsc4ccccc34)c21 [Compound I-306] | ≤ 100 nM
19 | Cc1ccccc1[C@H]1NC(=O)c2cc(CO)cc(NC(=O)c3nsc4ccccc34)c21 [Compound I-307] | 1000 to 10000 nM
20 | CC(C)(O)c1cc(NC(=O)N2CCc3ccccc32)c2c(c1)C(=O)NC2c1cc(F)ccc1Cl (stereo not drawn) [Compound I-308] | ≤ 100 nM
21 | O=C1NC(c2cc(F)ccc2Cl)c2c(NC(=O)N3CCc4ccccc43)cc(Br)cc21 (stereo not drawn) [Compound I-309] | ≤ 100 nM

Row | SMILES | IC50
22 | CS(=O)(=O)Cc1cc(NC(=O)c2cc(F)cc(C(F)(F)F)c2)c2c(c1)C(=O)NC2c1cc(F)ccc1Cl (stereo not drawn) [Compound I-310] | ≤ 100 nM
23 | CN1CC[C@H](Nc2cc(NC(=O)c3cc(F)cc(C(F)(F)F)c3)c3c(c2)C(=O)NC3c2cc(F)ccc2Cl)C1 (stereo partly drawn) [Compound I-311] | ≤ 100 nM
24 | CN1CC[C@@H](Nc2cc(NC(=O)c3cc(F)cc(C(F)(F)F)c3)c3c(c2)C(=O)NC3c2cc(F)ccc2Cl)C1 (stereo partly drawn) [Compound I-312] | ≤ 100 nM
25 | Cc1ccccc1C1NC(=O)c2c(C#N)ccc(NC(=O)c3cc(F)cc(C(F)(F)F)c3)c21 (stereo not drawn) [Compound I-313] | 100 to 500 nM
26 | COC(=O)c1cc(NC(=O)c2nsc3ccccc23)c2c(c1)C(=O)NC2c1ccccc1C (stereo not drawn) [Compound I-314] | 500 to 1000 nM
27 | Cc1ccccc1C1NC(=O)c2cc(C3(O)CC3)cc(NC(=O)c3nsc4ccccc34)c21 (stereo not drawn) [Compound I-315, N-[6-(1-hydroxycyclopropyl)-3-(2-methylphenyl)-1-oxo-2,3-dihydro-1H-isoindol-4-yl]-1,2-benzothiazole-3-carboxamide] | ≤ 100 nM
28 | Cc1ccccc1C1NC(=O)c2cccc(NC(=O)c3cc(F)n4ccccc34)c21 (stereo not drawn) [Compound I-316] | 500 to 1000 nM
29 | COc1cc(C(=O)Nc2cccc3c2C(c2ccccc2C)NC3=O)cc(F)c1F (stereo not drawn) [Compound I-317] | 500 to 1000 nM
30 | Cc1ccccc1C1NC(=O)c2cccc(NC(=O)c3cc(F)cc(OC(F)(F)F)c3)c21 (stereo not drawn) [Compound I-318] | 500 to 1000 nM
31 | CCCNc1cc(NC(=O)c2cc(F)cc(C(F)(F)F)c2)c2c(n1)C(=O)NC2c1cc(F)ccc1Cl (stereo not drawn) [Compound I-319] | ≤ 100 nM
32 | O=C(Nc1cnc(N2CC(F)(F)C2)c2c1C(c1cc(F)ccc1Cl)NC2=O)c1cc(F)cc(C(F)(F)F)c1 (stereo not drawn) [Compound I-320] | 100 to 500 nM
33 | O=C(Nc1cc(NCC(F)(F)F)nc2c1C(c1cc(F)ccc1Cl)NC2=O)c1cc(F)cc(C(F)(F)F)c1 (stereo not drawn) [Compound I-321] | ≤ 100 nM
34 | CC1(O)CN(c2cc(NC(=O)c3cc(F)cc(C(F)(F)F)c3)c3c(n2)C(=O)NC3c2cc(F)ccc2Cl)C1 (stereo not drawn) [Compound I-322] | 100 to 500 nM
35 | O=C(Nc1cccc2c(=O)[nH]n(-c3cc(F)ccc3Cl)c12)c1cc(F)cc(C(F)(F)F)c1 [Compound I-323] | 1000 to 10000 nM
36 | COc1cc2c(cn1)N(C(=O)Nc1ccnc3c1C(c1ccccc1C)NC3=O)CC2 (stereo not drawn) [Compound I-324] | 10000 to 100000 nM
37 | O=C(Nc1cccc2c1C(c1ccccc1Br)NC2=O)c1cc(F)cc(C(F)(F)F)c1 (stereo not drawn) [Compound I-325] | 100 to 500 nM
38 | CN(C)/C=N/c1cc(Br)cc2c1C(c1cc(F)ccc1Br)NC2=O (stereo not drawn) [Compound I-326] | 10000 to 100000 nM
39 | Cc1cc(F)ccc1C1NC(=O)c2cccc(NC(=O)c3cc(F)cc(C(F)(F)F)c3)c21 (stereo not drawn) [Compound I-327] | 500 to 1000 nM
40 | Cc1ccccc1C1NC(=O)c2cccc(NC(=O)c3nnc4ccccn34)c21 (stereo not drawn) [Compound I-328, N-(1-oxo-3-(o-tolyl)isoindolin-4-yl)-[1,2,4]triazolo[4,3-a]pyridine-3-carboxamide] | 10000 to 100000 nM
41 | O=C(Nc1cccc2c1C(c1cc(F)c(F)cc1C(F)F)NC2=O)c1cc(F)cc(C(F)(F)F)c1 (stereo not drawn) [Compound I-330] | ≤ 100 nM
42 | O=C(Nc1cccc2c1C(c1cc(F)c(F)cc1C(F)F)NC2=O)c1cc(F)cc(Cl)c1 (stereo not drawn) [Compound I-331] | 100 to 500 nM

Row | SMILES | IC50
43 | O=C1NC(c2cc(F)c(F)cc2C(F)F)c2c(NC(=O)c3nsc4ccc(F)cc34)cccc21 (stereo not drawn) [Compound I-332] | ≤ 100 nM
44 | O=Cc1cc(NC(=O)c2cc(F)cc(C(F)(F)F)c2)c2c(c1)C(=O)NC2c1cc(F)ccc1Cl (stereo not drawn) [Compound I-333, N-(3-(2-Chloro-5-fluorophenyl)-6-formyl-1-oxoisoindolin-4-yl)-3-fluoro-5-(trifluoromethyl)benzamide] | ≤ 100 nM
45 | O=C(Nc1cc(C(O)CN2CC(F)(F)C2)cc2c1C(c1cc(F)ccc1Cl)NC2=O)c1cc(F)cc(Cl)c1 (stereo not drawn) [Compound I-334] | 100 to 500 nM
46 | COc1ncc2c(c1NC(=O)c1cc(F)cc(C(F)(F)F)c1)C(c1ccccc1Cl)NC2=O (stereo not drawn) [Compound I-335, N-(1-(2-chlorophenyl)-6-methoxy-3-oxo-2,3-dihydro-1H-pyrrolo[3,4-c]pyridin-7-yl)-3-fluoro-5-(trifluoromethyl)benzamide] | 10000 to 100000 nM
47 | Cn1cc(C(=O)Nc2cc(NC(=O)c3cc(F)cc(C(F)(F)F)c3)c3c(c2)C(=O)NC3c2cc(F)ccc2Cl)cn1 (stereo not drawn) [Compound I-336] | ≤ 100 nM
48 | Cc1ccccc1C1NC(=O)c2cccc(NC(=O)c3cc(C(F)(F)F)ccn3)c21 (stereo not drawn) [Compound I-337] | 10000 to 100000 nM
49 | O=C(Nc1cc(NCC(F)F)nc2c1C(c1cc(F)ccc1Cl)NC2=O)c1cc(F)cc(C(F)(F)F)c1 (stereo not drawn) [Compound I-338] | ≤ 100 nM
50 | Cc1ccccc1C1NC(=O)c2c(C(N)=O)ccc(NC(=O)c3cc(F)cc(C(F)(F)F)c3)c21 (stereo not drawn) [Compound I-339] | 100 to 500 nM
51 | COc1cc(F)cc(C(=O)Nc2cccc3c2C(c2ccccc2C)NC3=O)c1 (stereo not drawn) [Compound I-340] | 1000 to 10000 nM
52 | COc1cc(F)c(F)c(C(=O)Nc2cccc3c2C(c2ccccc2C)NC3=O)c1 (stereo not drawn) [Compound I-341] | 10000 to 100000 nM
53 | Cc1ccccc1C1NC(=O)c2cccc(NC(=O)c3nc(C)c4c(F)cc(F)cn34)c21 (stereo not drawn) [Compound I-342] | 10000 to 100000 nM
54 | O=C(Nc1cc(NC(=O)C2COC2)cc2c1C(c1cc(F)ccc1Cl)NC2=O)c1cc(F)cc(C(F)(F)F)c1 (stereo not drawn) [Compound I-344] | ≤ 100 nM
55 | O=C(CO)Nc1cc(NC(=O)c2cc(F)cc(C(F)(F)F)c2)c2c(c1)C(=O)NC2c1cc(F)ccc1Cl (stereo not drawn) [Compound I-345] | ≤ 100 nM
56 | COCC(=O)Nc1cc(NC(=O)c2cc(F)cc(C(F)(F)F)c2)c2c(c1)C(=O)NC2c1cc(F)ccc1Cl (stereo not drawn) [Compound I-346] | ≤ 100 nM
57 | O=C(Nc1cc(NC(=O)C2CCOCC2)cc2c1C(c1cc(F)ccc1Cl)NC2=O)c1cc(F)cc(C(F)(F)F)c1 (stereo not drawn) [Compound I-347] | ≤ 100 nM
58 | O=C(Nc1cc(CN2CC(F)(F)C2)cc2c1C(c1cc(F)ccc1Cl)NC2=O)c1cc(F)cc(C(F)(F)F)c1 (stereo not drawn) [Compound I-348, N-(3-(2-Chloro-5-fluorophenyl)-6-((3,3-difluoroazetidin-1-yl)methyl)-1-oxoisoindolin-4-yl)-3-fluoro-5-(trifluoromethyl)benzamide] | ≤ 100 nM
59 | O=C(Nc1cc(CNC2CC(F)(F)C2)cc2c1C(c1cc(F)ccc1Cl)NC2=O)c1cc(F)cc(C(F)(F)F)c1 (stereo not drawn) [Compound I-349] | ≤ 100 nM
60 | O=C(Nc1cc(CN2CCNCC2)cc2c1C(c1cc(F)ccc1Cl)NC2=O)c1cc(F)cc(C(F)(F)F)c1 (stereo not drawn) [Compound I-350] | ≤ 100 nM
61 | O=C(Nc1cc(NC(=O)C2CS(=O)(=O)C2)cc2c1C(c1cc(F)ccc1Cl)NC2=O)c1cc(F)cc(C(F)(F)F)c1 (stereo not drawn) [Compound I-351] | ≤ 100 nM
62 | O=C(Nc1cc(CNC2COC2)cc2c1C(c1cc(F)ccc1Cl)NC2=O)c1cc(F)cc(C(F)(F)F)c1 (stereo not drawn) [Compound I-352] | ≤ 100 nM
63 | O=C(Nc1cc(CN2CCC(F)(F)C2)cc2c1C(c1cc(F)ccc1Cl)NC2=O)c1cc(F)cc(C(F)(F)F)c1 (stereo not drawn) [Compound I-353] | ≤ 100 nM
